Test results reported in article PMC6761512, “Trypanosoma cruzi Phosphomannomutase and Guanosine Diphosphate-Mannose Pyrophosphorylase Ligandability Assessment” (Antimicrobial Agents and Chemotherapy, 2019).

What was measured:
T. cruzi GDP-MP [1] = target: T1, T. cruzi GDP-MP (Trypanosoma cruzi, UniProt Q4CMK4); test: standard configuration GDP-MP biochemical assay
Procedure: (§1) All enzyme and substrate solution dilutions were prepared in assay buffer comprising 25 mM Tris-HCl (pH 7.5), 150 mM NaCl, 4 mM MgCl2, 0.01% (vol/vol) Tween 20, and 1 mM dithiothreitol in ultrapure water. Biochemical assays were performed in a 50-μl final assay volume using clear 384-well assay microplates (Greiner, catalog no. 781101) at room temperature. Unless stated otherwise, all reagent concentrations are written as final biochemical assay concentrations, and DMSO or compounds were added to assay plates using Echo acoustic dispensers (Labcyte). Reagent addition for high-throughput screening assays was performed using an Xrd-384 liquid dispenser (FluidX, UK) and a BioFill Solo/Xrd-384 16 channel resin nozzle (2.00 to 200 μl) tubing cartridge (FluidX, catalog no. 34-1005-S). Biochemical reactions were terminated by addition of 50 μl of BIOMOL Green (Enzo Life Sciences, catalog no. BML-AK111-1000) reagent, after which absorbance was measured following a 30-min incubation at room temperature. Absorbance measurements were performed at 650 nm using a PHERAStar microplate reader (BMG Labtech, Germany), and the data are represented as relative absorbance units (RAU). Linear and nonlinear regression was performed using the SigmaPlot 12.5 software, unless stated otherwise.
Concentration-response assessment of hits using the PMM-GDP-MP assays was performed by adding 25 μl of a solution of PMM and GDP-MP enzymes (6.25 and 3.13 nM, respectively) to columns 1 to 11 and 13 to 23 of microplates containing various concentrations of compounds (10 final assay concentrations ranging from […] at 1 in 3 dilution increments in the presence of 1% [vol/vol] DMSO). Buffer only (25 μl) was added to columns 12 and 24. Columns 11 and 23 were utilized as “maximum effect” control populations (1% [vol/vol] DMSO with enzyme), and columns 12 and 24 were “minimum effect” control populations (1% [vol/vol] DMSO in the absence of enzyme). This was followed by the addition of 25 μl of a mixture containing inorganic pyrophosphatase (1 U/ml) and substrates/cofactors (150 μM GTP, 45 μM M-6-P, and 6 μM G-1,6-BP for the standard configuration assay and 150 μM GTP, 225 μM M-6-P, and 30 μM G-1,6-BP for the high-substrate configuration assay) to the entire assay plate. The standard configuration assay plates were incubated at room temperature for 90 min, and the high-substrate configuration assay plates were incubated for 80 min. Standard and high-substrate configuration GDP-MP assay compound concentration-response assessments were performed as described above by incubating GDP-MP enzyme (3.13 or 0.78 nM) in the presence of GTP (30 or 300 μM), M-1-P (15 or 150 μM), and inorganic pyrophosphatase (1 U/ml) for 50 min at room temperature. Pyrophosphatase counterscreen concentration-response assessments were performed by preincubating compounds with inorganic pyrophosphatase (1 U/ml) for 90 min at room temperature, followed by the addition of inorganic pyrophosphate (10 μM) and a secondary 5-min incubation at room temperature. At the end of the incubation periods, the biochemical reactions were terminated and absorbance measurements were taken. RAU values were normalized to % inhibition values relative to the maximum and minimum effect control populations. pIC50 values, defined as –log[IC50(M)], were calculated by fitting concentration-response data for each independent replicate separately to a four-parameter logistic model, as shown below, using either the IDBS ActivityBase 8.1.2.12 or SigmaPlot 12.5 software. Where appropriate, the top curve plateau parameter was constrained to a value of 100.
The four-parameter logistic model was as follows, where Min is the minimum asymptote and Max is the maximum asymptote: y=Min+Max – Min/1+(10^−logIC50/x)^Hill slope

[2] = target: T2, T. cruzi PMM and GDP-MP enzymes (Trypanosoma cruzi, UniProt Q4CMK4); test: standard configuration PMM-GDP-MP biochemical assay; settings: for pIC50: library stock material, mean n=2; for pIC50 ± SD: repurchased material, n=3
T2 sequence (Q4CMK4 entry or part of it): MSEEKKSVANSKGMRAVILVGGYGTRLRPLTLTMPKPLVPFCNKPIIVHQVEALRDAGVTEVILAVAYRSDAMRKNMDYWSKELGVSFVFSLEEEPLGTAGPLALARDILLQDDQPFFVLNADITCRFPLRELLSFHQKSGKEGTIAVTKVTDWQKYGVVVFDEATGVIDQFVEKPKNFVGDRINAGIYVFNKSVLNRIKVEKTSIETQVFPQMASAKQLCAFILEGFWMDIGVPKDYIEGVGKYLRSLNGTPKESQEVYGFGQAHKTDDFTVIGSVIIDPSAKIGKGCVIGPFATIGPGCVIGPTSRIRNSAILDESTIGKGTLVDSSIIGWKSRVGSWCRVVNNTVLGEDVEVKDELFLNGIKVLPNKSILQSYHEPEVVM
T2 sequence (Q4E4A3 entry or part of it, further chain): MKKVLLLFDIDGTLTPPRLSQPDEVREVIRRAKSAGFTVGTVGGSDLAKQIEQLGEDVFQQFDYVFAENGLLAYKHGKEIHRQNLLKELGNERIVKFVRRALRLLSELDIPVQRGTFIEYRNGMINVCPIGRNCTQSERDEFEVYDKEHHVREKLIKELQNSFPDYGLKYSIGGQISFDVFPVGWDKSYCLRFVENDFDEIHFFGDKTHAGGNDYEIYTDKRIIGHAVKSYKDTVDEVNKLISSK
Procedure: as §1
Single-point diversity screening was performed using the standard configuration PMM-GDP-MP biochemical assay and microplates containing compounds in columns 1 to 22 from two diverse small-molecule compound sets covering traditional small-molecule chemical space (DDD, 9,257 compounds; molecular weights between 185.2 and 492.2) and more three-dimensional chemical space (GHCDL, 8,860 compounds; molecular weights between 190.24 and 449.3) at a final concentration of 10 μM (final DMSO concentration = 0.1% [vol/vol]) or a small polar set (16,845 primarily fragment-sized compounds with increased polarity; molecular weights between 88.1 and 476.0) at a final concentration of 300 μM (final DMSO concentration = 0.3% [vol/vol]). Columns 23 and 24 both contained DMSO (either 0.1 or 0.3% [vol/vol] at final assay concentration) and were utilized as “maximum effect” and “minimum effect” control populations, respectively. For screening purposes, 25 μl of a solution containing PMM and GDP-MP enzymes (6.25 and 3.13 nM, respectively) was added to columns 1 to 23, and 25 μl of buffer only was added to column 24. This was followed by the addition of 25 μl of a mixture containing inorganic pyrophosphatase (1 U/ml) and substrates/cofactors (150 μM GTP, 45 μM M-6-P, and 6 μM G-1,6,-BP). The assay plates were incubated at room temperature for 90 min. At the end of the incubation period, the biochemical reactions were terminated, and absorbance measurements were taken. Robust Z′ values were calculated for each assay microplate using the following equation: Robust Z’=1 –((3 ×(1.483 ×(RAU MAD Max)))+(3 ×(1.483 ×(RAU MAD Min))))/(median RAU Max− median RAU Min) where MAD is the median absolute deviation, Max are the maximum effect control samples, and Min are the minimum effect control samples.
RAU values were normalized to percent inhibition values relative to the maximum and minimum effect control populations, and compounds displaying percent inhibition values of ≥30% were selected as hits. Data were processed using IDBS ActivityBase 8.1.2.12 and Dotmatics Limited Vortex v2017.08.69598-59-s software.
Concentration-response assessment of hits using the PMM-GDP-MP assays was performed by adding 25 μl of a solution of PMM and GDP-MP enzymes (6.25 and 3.13 nM, respectively) to columns 1 to 11 and 13 to 23 of microplates containing various concentrations of compounds (10 final assay concentrations ranging from […] at 1 in 3 dilution increments in the presence of 1% [vol/vol] DMSO). Buffer only (25 μl) was added to columns 12 and 24. […]

T. cruzi GDP-MP enzyme = test: Km determination with the GDP-MP assay; assay type: biochemical
Procedure: as §1
To calculate the Michaelis constant (Km) for the M-1-P substrate, 20-min time course reactions using a fixed concentration of GDP-MP enzyme (3.13 nM), a saturating concentration of GTP substrate (600 μM) mixed with inorganic pyrophosphatase (1 U/ml; Merck, catalogue no. I5907-1MG), and various concentrations of M-1-P substrate (150, 75, 37.5, 18.8, 9.38, 4.69, and 2.34 μM) were performed. The Km for the GTP substrate was acquired in a similar manner using a saturating concentration of M-1-P (150 μM) and various concentrations of GTP substrate (300, 150, 75, 37.5, 18.8, 9.38, and 4.69 μM). In both cases, background control samples were also included that lacked the presence of GDP-MP enzyme. At the end of the time courses, the biochemical reactions were terminated, and absorbance measurements were taken. […]

T. cruzi GDP-MP [3] = target: T1, T. cruzi GDP-MP; test: high-substrate configuration GDP-MP biochemical assay; settings: for IC50: GDP-MP, high-substrate configuration, repurchased material, n=3; for mode of inhibition of GDP-MP: from comparison of standard and high-substrate (10-fold) configuration GDP-MP assays
Procedure: as §1
Concentration-response assessment of hits using the PMM-GDP-MP assays was performed by adding 25 μl of a solution of PMM and GDP-MP enzymes (6.25 and 3.13 nM, respectively) to columns 1 to 11 and 13 to 23 of microplates containing various concentrations of compounds (10 final assay concentrations ranging from 990 to 1.92 μM at 1 in 3 dilution increments in the presence of 1% [vol/vol] DMSO). Buffer only (25 μl) was added to columns 12 and 24. Columns 11 and 23 were utilized as “maximum effect” control populations (1% [vol/vol] DMSO with enzyme), and columns 12 and 24 were “minimum effect” control populations (1% [vol/vol] DMSO in the absence of enzyme). This was followed by the addition of 25 μl of a mixture containing inorganic pyrophosphatase (1 U/ml) and substrates/cofactors (150 μM GTP, 45 μM M-6-P, and 6 μM G-1,6-BP for the standard configuration assay and 150 μM GTP, 225 μM M-6-P, and 30 μM G-1,6-BP for the high-substrate configuration assay) to the entire assay plate. […] At the end of the incubation periods, the biochemical reactions were terminated and absorbance measurements were taken. RAU values were normalized to % inhibition values relative to the maximum and minimum effect control populations. pIC50 values, defined as –log[IC50(M)], were calculated by fitting concentration-response data for each independent replicate separately to a four-parameter logistic model, as shown below, using either the IDBS ActivityBase 8.1.2.12 or SigmaPlot 12.5 software. […]

[4] = target: T2, T. cruzi PMM and GDP-MP enzymes; test: high-substrate configuration PMM-GDP-MP biochemical assay; settings: repurchased material, n=3
Procedure: as §1, with “otherwise. […]” for “otherwise.”

[5] = library stock material, n=1, read-out: pIC50 (converted)
[6] = repurchased material, n=3, read-out: pIC50 ± SD (converted)

T1 sequence (Q4CMK4 entry or part of it): as the sequence (Q4CMK4 entry or part of it) above

| Structure (SMILES) | IC50 (T. cruzi GDP-MP [1]; [5]) [µM] | pIC50 [2] | GTP Km of T. cruzi GDP-MP, fold higher than reported for L. donovani (T. cruzi GDP-MP enzyme; vs L. donovani GDP-MP) [fold] | GTP Km of T. cruzi GDP-MP, fold higher than reported for L. major (T. cruzi GDP-MP enzyme; vs L. major GDP-MP) [fold] | GTP Km of T. cruzi GDP-MP, fold higher than reported for L. mexicana (T. cruzi GDP-MP enzyme; vs L. mexicana GDP-MP) [fold] | IC50 (T. cruzi GDP-MP [3]) [µM] | mode of inhibition of GDP-MP (T. cruzi GDP-MP [3]) | IC50 (T. cruzi GDP-MP [1]; [6]) [µM] | pIC50 ± SD [2] | pIC50 ± SD [4] |
| --- | --- | --- | --- | --- | --- | --- | --- | --- | --- | --- |
| CC(C)C(C(=O)O)N1C(=O)C=CC1=O (stereo not drawn) [compound 1] | 25.1 | 4.9 (2) |  |  |  |  |  |  |  |  |
| Nc1nc2c(ncn2[C@@H]2O[C@H](COP(=O)(O)OP(=O)(O)OP(=O)(O)O)[C@@H](O)[C@H]2O)c(=O)[nH]1 [GTP] |  |  | 2.4 | 27 | 5.3 |  |  |  |  |  |
| CC(=O)OCc1cc(-c2csc(N)n2)ccc1O [compound 3] | 158 | 3.5 (2) |  |  |  | 316 | competitive inhibition | 126 | 3.9 ± 0.2 (3) | 3.6 ± 0.1 (3) |
| c1ccn2c(CNCCCN3CCC3)cnc2c1 [compound 2] | > 1000 | 3.6 (2) |  |  |  | 794 | uncompetitive inhibition | > 1000 | 3.1 ± 0.2 (3) | 3.2 ± 0.2 (3) |
| N[C@H]1CCN(CCCOc2ccc(C(=O)O)cc2)C1 [compound 4] | 158 | 4.0 (2) |  |  |  |  |  |  |  |  |
